Laboratory results published in patent publication US10072014B2 (Janssen Pharmaceutica NV, priority 2014, dated 2018).

What was measured:
human mGlu2 receptor = target: T1, human mGlu2 receptor (Homo sapiens, UniProt Q14416); test: [35S]GTPγS binding assay, negative allosteric modulation of mGluR2; format: biochemical; conditions: for Emax: maximal % inhibition relative to the control glutamate response (EC80 glutamate), read-out: GTPγS-hmGluR2 anGT Emax; for IC50: membranes from CHO cells transfected with human mGlu2 receptor, glutamate 60 μM (~EC80), read-out: GTPγS-hmGluR2 anGT pIC50 (converted)
T1 construct: expressed in transfected cells; host or cells: CHO cells
T1 sequence (Q14416 19-872): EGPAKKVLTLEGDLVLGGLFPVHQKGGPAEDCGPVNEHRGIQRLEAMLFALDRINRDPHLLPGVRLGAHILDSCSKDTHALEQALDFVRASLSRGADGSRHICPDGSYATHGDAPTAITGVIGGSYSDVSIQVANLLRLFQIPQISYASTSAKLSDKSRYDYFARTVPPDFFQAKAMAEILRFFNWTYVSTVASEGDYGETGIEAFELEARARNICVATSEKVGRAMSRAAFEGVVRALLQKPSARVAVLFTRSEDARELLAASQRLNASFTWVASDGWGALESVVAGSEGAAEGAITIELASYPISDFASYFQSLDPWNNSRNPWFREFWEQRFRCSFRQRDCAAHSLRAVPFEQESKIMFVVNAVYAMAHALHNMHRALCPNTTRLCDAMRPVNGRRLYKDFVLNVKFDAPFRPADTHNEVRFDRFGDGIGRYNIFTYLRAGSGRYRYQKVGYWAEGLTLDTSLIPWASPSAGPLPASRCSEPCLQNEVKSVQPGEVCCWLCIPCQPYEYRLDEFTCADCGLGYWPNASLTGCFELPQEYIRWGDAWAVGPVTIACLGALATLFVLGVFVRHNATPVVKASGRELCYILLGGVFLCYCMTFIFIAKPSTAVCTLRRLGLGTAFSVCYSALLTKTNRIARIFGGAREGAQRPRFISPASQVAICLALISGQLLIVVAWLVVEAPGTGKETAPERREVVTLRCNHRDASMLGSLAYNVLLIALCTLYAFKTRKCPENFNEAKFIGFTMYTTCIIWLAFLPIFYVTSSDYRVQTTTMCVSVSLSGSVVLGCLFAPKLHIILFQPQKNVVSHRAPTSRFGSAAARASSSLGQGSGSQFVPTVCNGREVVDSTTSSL
Description: The compounds provided in the present invention are negative allosteric modulators of mGluR2. These compounds appear to inhibit glutamate responses by binding to an allosteric site other than the glutamate binding site. The response of mGluR2 to a concentration of glutamate is decreased when compounds of Formula (I) are present. Compounds of Formula (I) are expected to have their effect substantially at mGluR2 by virtue of their ability to reduce the function of the receptor. The effects of negative allosteric modulators tested at mGluR2 using the [^35S]GTPγS binding assay method described below and which is suitable for the identification of such compounds, and more particularly the compounds according to Formula (I), are shown in Table 7.
1) [^35S]GTPγS Binding Assay
The [^35S]GTPγS binding assay is a functional membrane-based assay used to study G-protein coupled receptor (GPCR) function whereby incorporation of a non-hydrolysable form of GTP, [^35S]GTPγS (guanosine 5′-triphosphate, labelled with […] ^35S), is measured. The G-protein a subunit catalyzes the exchange of guanosine 5′-diphosphate (GDP) by guanosine triphosphate (GTP) and on activation of the GPCR by an agonist, [^35S]GTPγS, becomes incorporated and cannot be cleaved to continue the exchange cycle (Harper (1998) Current Protocols in Pharmacology 2.6.1-10, John Wiley & Sons, Inc.). […] Here we describe the use of the [^35S]GTPγS binding assay using membranes from cells transfected with the human mGlu2 receptor and adapted from Schaffhauser et al. (Molecular Pharmacology, 2003, […]) for the detection of the negative allosteric modulation (NAM) properties of the compounds of this invention.
CHO-cells were cultured to pre-confluence and stimulated with 5 mM butyrate for 24 h. Cells were then collected by scraping in PBS and cell suspension was centrifuged (10 min at 4000 RPM in benchtop centrifuge). Supernatant was discarded and pellet gently resuspended in 50 mM Tris-HCl, pH 7.4 by mixing with an Ultra Turrax homogenizer. The suspension was centrifuged at 12,400 RPM (Sorvall F14S-6x250Y) for 10 minutes and the supernatant discarded. The pellet was homogenized in 5 mM Tris-HCl, pH 7.4 using an Ultra Turrax homogenizer and centrifuged again (13,000 RPM, 20 min, 4° C.). The final pellet was resuspended in 50 mM Tris-HCl, pH 7.4 and stored at −80° C. in appropriate aliquots before use. Protein concentration was determined by the Bradford method (Bio-Rad, USA) with bovine serum albumin as standard.
[^35S]GTPγS Binding Assay
Measurement of mGluR2 negative allosteric modulatory activity of test compounds was performed as follows. Test compounds and glutamate were diluted in assay buffer containing 10 mM HEPES acid, 10 mM HEPES salt, pH 7.4, 100 mM NaCl, 3 mM MgCl2 and 10 μM GDP. Human mGlu2 receptor-containing membranes were thawed on ice and diluted in assay buffer supplemented with 18 μg/ml saponin. Membranes were pre-incubated with compound together with a predefined (˜EC80) concentration of glutamate (60 μM) for 30 min at 30° C. After addition of [^35S]GTPγS (f.c. 0.1 nM), assay mixtures were shaken briefly and further incubated to allow [^35S]GTPγS incorporation on activation (30 minutes, 30° C.). Final assay mixtures contained 7 μg of membrane protein in 10 mM HEPES acid, 10 mM HEPES salt, pH 7.4, 100 mM NaCl, 3 mM MgCl2, 10 μM GDP and 10 μg/ml saponin. Total reaction volume was 200 μl. Reactions were terminated by rapid filtration through Unifilter-96 GF/B plates (Perkin Elmer, Massachusetts, USA) using a 96-well filtermate universal harvester. Filters were washed 6 times with ice-cold 10 mM NaH2PO4/10 mM Na2HPO4, pH 7.4. Filters were then air-dried, and 30 μl of liquid scintillation cocktail (Microscint-O) was added to each well. Membrane-bound radioactivity was counted in a Topcount.
The concentration-response curves of representative compounds of the present invention were generated using the Lexis software interface (developed at J&J). […]

rats = test: Reversal of the effect of the mGluR2 PAM JNJ-42153605-induced inhibition of scopolamine-induced hyperlocomotion; format: in vivo; conditions: Rattus norvegicus, PO, criterion for reversal: total distance >1500 cm, read-out: ED50 SCOP JNJ-42153605
Protocol: 2) Reversal of the Effect of the mGluR2 PAM JNJ-42153605-induced Inhibition of Scopolamine-induced Hyperlocomotion Apparatus
Motor activity was measured in microprocessor-based motor activity arenas (closed gray PVC cylinders with a height of 39 cm and a diameter of 31 cm). Each arena was placed on an infrared LED (8×8 LEDs) lit box (white PVC squared box; 40×40 cm^2; height 12.5 cm. An infrared-sensitive tube camera and a white light source were mounted to the ceiling above the observation chamber to track the animal. The total distance traveled (cm) was recorded and analyzed using the Noldus Ethovision XT Video Tracking System (Version 7.0.418; Noldus, Wageningen, The Netherlands). The intensity of the light within the activity cages (measured in the centre at the level of the floor) ranged between 4 and 8 LUX.
The rats were pretreated with test compound or vehicle at 60 min before the start of the activity recordings and placed into individual cages. The rats were challenged with JNJ-42153605 (3-(cyclopropylmethyl)-7-(4-phenylpiperidin-1-yl)-8-(trifluoromethyl)-[1,2,4]triazolo[4,3-a]pyridine; WO2010/130424; Cid et al. J. Med. Chem. 2012, 55, 8770-8789) (20 mg/kg, i.v.) 30 min before the start of the activity recording combined with scopolamine (0.16 mg/kg, i.v.) just before the start of the activity measurements. Immediately after the injection of scopolamine, the rats were placed into the activity monitors and total distance traveled over the first 30 min was measured.
Solvent-pretreated Control Rats.
Animals receiving the combination of JNJ-42153605 and scopolamine (n=433) almost always traveled a distance of less than 1500 cm (<1500 cm) (only 2.5% of the control rats traveled a distance of more than 1500 cm (>1500 cm)). On the other hand, animals challenged with scopolamine alone (n=215) always traveled a total distance of more than 1500 cm (>1500 cm) and almost always (in 95.8% of the rats) a distance of more than 4400 cm (>4400 cm). […] For reversal of the inhibitory effect of JNJ-42153605 on the scopolamine-induced hyperlocomotion, the following all-or-none criteria were adopted: (1) reversal: total distance>1500 cm.

| SMILES | melting point | Emax (human mGlu2 receptor) | IC50 (human mGlu2 receptor) | ED50 (rats) |
| --- | --- | --- | --- | --- |
| C[C@H]1CN(c2ccc(C(F)(F)F)cc2)C(=O)c2c(-c3c[nH]c(C4CC4)n3)cnn21 [Compound 2] |  | 103% | 20 nM |  |
| C[C@H]1CN(c2ccc(C(F)(F)F)cc2)C(=O)c2c(-c3nc(-c4ccc(N)nc4)[nH]c3Cl)cnn21 [Compound 3] |  | 108% | 25.1 nM |  |
| C[C@H]1CN(c2ccc(C(F)(F)F)cc2)C(=O)c2c(-c3c[nH]c(-c4ccccc4)n3)cnn21 [Compound 5] | 119.88 °C | 105% | 27.5 nM |  |
| Cc1nc(C2CC2)[nH]c1-c1cnn2c1C(=O)N(c1ccc(C(F)(F)F)cc1)C[C@@H]2C [Compound 7] |  | 106% | 31.6 nM | > 0.63 mg/kg |
| C[C@H]1CN(c2ccc(C(F)(F)F)cc2)C(=O)c2c(-c3cnc(C(F)(F)F)[nH]3)cnn21 [Compound 8] |  | 108% | 33.1 nM |  |
| C[C@H]1CN(c2ccc(C(F)(F)F)cc2)C(=O)c2c(-c3nc(-c4ccc(N)nc4)[nH]c3Br)cnn21 [Compound 9] |  | 108% | 34.7 nM |  |
| Cc1[nH]c(-c2cccnc2)nc1-c1cnn2c1C(=O)N(c1ccc(C(F)(F)F)cc1)C[C@@H]2C [Compound 14] | 244.74 °C | 103% | 110 nM |  |
| Cc1[nH]c(-c2ccccn2)nc1-c1cnn2c1C(=O)N(c1ccc(C(F)(F)F)cc1)C[C@@H]2C [Compound 17] | 198.73 °C | 106% | 145 nM |  |
| Cc1cc(N2C[C@H](C)n3ncc(-c4c[nH]c(-c5ccc(N)nc5)n4)c3C2=O)ccc1C(F)(F)F [Compound 20] | 275.27 °C | 107% | 53.7 nM |  |
| C[C@H]1CN(c2ccc(C(F)(F)F)c(Cl)c2)C(=O)c2c(-c3c[nH]c(C#N)n3)cnn21 [Compound 29] |  | 111% | 3.89 nM |  |
| CNC(=O)c1nc(-c2cnn3c2C(=O)N(c2ccc(C(F)(F)F)c(Cl)c2)C[C@@H]3C)c[nH]1 [Compound 35] |  | 111% | 38 nM |  |
| C[C@H]1CN(c2ccc(C(F)(F)F)c(Cl)c2)C(=O)c2c(-c3c[nH]c(C(=O)N(C)C)n3)cnn21 [Compound 36] |  | 106% | 110 nM |  |
| C[C@H]1CN(c2ccc(C(F)(F)F)cc2)C(=O)c2c(-c3cnc(C4CCC4)[nH]3)cnn21 [Compound 40] |  | 107% | 6.92 nM |  |
| C[C@H]1CN(c2ccc(C(F)(F)F)c(Cl)c2)C(=O)c2c(-c3c[nH]c(C4CCC4)n3)cnn21 [Compound 42] | 173.18 °C | 109% | 1.86 nM |  |
| C[C@H]1CN(c2ccc(C(F)(F)F)c(Cl)c2)C(=O)c2c(-c3c[nH]c(-c4cnccn4)n3)cnn21 [Compound 43] | 227.75 °C | 106% | 4.9 nM |  |
| C[C@H]1CN(c2ccc(C(F)(F)F)c(Cl)c2)C(=O)c2c(-c3nc(-c4ccc(N)nc4)[nH]c3C#N)cnn21 [Compound 45] |  | 106% | 34.7 nM |  |

More lines, main results first:

| melting point | Emax (human mGlu2 receptor) | IC50 (human mGlu2 receptor) | SMILES | ED50 (rats) |
| --- | --- | --- | --- | --- |
| 228.68 °C | 99.3% | 11.5 nM | C[C@H]1CN(c2ccc(C(F)(F)F)cc2)C(=O)c2c(-c3nc[nH]c3Br)cnn21 [Compound 1] |  |
| 156.03 °C | 104% | 30.9 nM | CC(C)c1nc(-c2cnn3c2C(=O)N(c2ccc(C(F)(F)F)cc2)C[C@@H]3C)c[nH]1 [Compound 6] |  |
| 219.19 °C | 107% | 36.3 nM | C[C@H]1CN(c2ccc(C(F)(F)F)cc2)C(=O)c2c(-c3cnc(C#N)[nH]3)cnn21 [Compound 10] |  |
| 176.92 °C | 101% | 70.8 nM | C[C@H]1CN(c2ccc(C(F)(F)F)cc2)C(=O)c2c(-c3cnc[nH]3)cnn21 [Compound 12] |  |
|  | 104% | 83.2 nM | COCc1ncc(-c2cnn3c2C(=O)N(c2ccc(C(F)(F)F)cc2)C[C@@H]3C)[nH]1 [Compound 13] |  |
| 205 °C | 102% | 170 nM | CNc1ncc(-c2cnn3c2C(=O)N(c2ccc(C(F)(F)F)cc2)C[C@@H]3C)[nH]1 [Compound 15] |  |
|  | 108% | 50.1 nM | C[C@H]1CN(c2ccc(Cl)c(Cl)c2)C(=O)c2c(-c3c[nH]c(-c4ccc(N)nc4)n3)cnn21 [Compound 19] |  |
| 226.81 °C | 104% | 64.6 nM | Cc1nc(-c2cnn3c2C(=O)N(c2ccc(C(F)(F)F)c(C#N)c2)C[C@@H]3C)c[nH]1 [Compound 23] |  |
| 174.28 °C | 106% | 15.8 nM | Cc1ncc(-c2cnn3c2C(=O)N(c2ccc(C(F)(F)F)c(CF)c2)C[C@@H]3C)[nH]1 [Compound 24] |  |
| 188.06 °C | 109% | 12.9 nM | C[C@H]1CN(c2ccc(C(F)(F)F)c(Cl)c2)C(=O)c2c(-c3c[nH]c(-c4cccnc4)n3)cnn21 [Compound 37] |  |
| 232.11 °C | 105% | 21.4 nM | Cc1[nH]c(-c2ccccn2)nc1-c1cnn2c1C(=O)N(c1ccc(C(F)(F)F)c(Cl)c1)C[C@@H]2C [Compound 38] |  |
|  | 104% | 8.32 nM | C[C@H]1CN(c2ccc(C(F)(F)F)c(Cl)c2)C(=O)c2c(-c3c[nH]c(-c4ccccn4)n3)cnn21 [Compound 39] |  |
|  | 106% | 166 nM | Cc1cc(-c2ncc(-c3cnn4c3C(=O)N(c3ccc(C(F)(F)F)cc3)C[C@@H]4C)[nH]2)ccn1 [Compound 41] |  |
|  | 103% | 38.9 nM | C[C@H]1CN(c2ccc(C(F)(F)F)cc2)C(=O)c2c(-c3c[nH]c(-c4cnccn4)n3)cnn21 [Compound 44] |  |
